Columns and labels:
[1] = system: Wnt pathway activity (SW480 colon carcinoma cells stably expressing the Sp5-Luc reporter); assay: Wnt pathway activity screening assay (Sp5-Luc reporter gene assay); settings: Homo sapiens, SW480, Table 4; SW480 cells stably expressing Sp5-Luc reporter, 10-point dose-response from 10 μM, 36 to 48 hours
CLK2 kinase = CLK2 kinase (Homo sapiens, UniProt P49760); assay: CLK2 kinase activity assay (Z-lyte FRET); type: biochemical; settings: Z-lyte Ser/Thr 6 peptide, 60 μM ATP, 1 h at room temperature;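 further: FRET read-out as coumarin to fluorescein emission ratio, unphosphorylated peptide as 0% and phosphorylated peptide as 100% controls, duplicate reactions, non-linear regression fit of dose-response curves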
Chain of CLK2 kinase (P49760 whole entry): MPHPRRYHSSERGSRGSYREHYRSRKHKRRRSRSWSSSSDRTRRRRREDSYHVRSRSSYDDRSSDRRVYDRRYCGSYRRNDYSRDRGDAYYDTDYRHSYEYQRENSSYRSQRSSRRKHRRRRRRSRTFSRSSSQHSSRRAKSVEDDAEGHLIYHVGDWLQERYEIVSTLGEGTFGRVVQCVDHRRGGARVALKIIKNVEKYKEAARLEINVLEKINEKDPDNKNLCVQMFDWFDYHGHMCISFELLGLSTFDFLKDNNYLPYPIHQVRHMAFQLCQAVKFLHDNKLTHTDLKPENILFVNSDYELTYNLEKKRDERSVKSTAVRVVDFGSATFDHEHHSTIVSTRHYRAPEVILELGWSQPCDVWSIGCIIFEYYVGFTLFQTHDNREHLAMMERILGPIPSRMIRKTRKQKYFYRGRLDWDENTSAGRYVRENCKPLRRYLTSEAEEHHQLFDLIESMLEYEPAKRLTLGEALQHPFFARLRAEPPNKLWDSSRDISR

[2] = system: primary human mesenchymal stem cells (hMSCs); assay: Chondrogenesis screening using primary human mesenchymal stem cells; type: cell-based; settings: Homo sapiens, Mesenchymal stem cells, hMSC chondrogenesis; for Emax: maximum activity relative to TGF-β3 (10 ng/mL) positive control, read-out: Max. Activity as % TGF-β3 activity; for EC50: concentration required to induce 50% levels of chondrogenesis with TGF-β3 as positive control, read-out: Conc (nM) of 50% TGF-β3 activity
Excerpt: Representative compounds were screened using primary human mesenchymal stem cells (hMSCs) to determine their ability to induce chondrogenesis (process by which cartilage is developed).
Human Mesenchymal Stem Cell Culture: Primary human mesenchymal stem cells (hMSCs) were purchased from Lonza (Walkersville, Md.) and expanded in Mesenchymal Stem Cell Growth Media (Lonza). Cells between passage 3 and 6 were used for the experiments.
Area of nodules in each well was normalized to the average of 3 DMSO treated wells on the same plate using Excel (Microsoft Inc.). The normalized averages (fold change over DMSO) of 2 or 3 replicate wells for each compound concentration were calculated. Due to solubility limitations of some of the compounds, curve fitting was incomplete leading to inaccurate EC50 determinations.
Using TGF-β3 as a positive control, the concentration of representative compounds required to induce 50% levels of chondrogenesis is reported. In addition, the maximum activity of each compound and the respective dose that each compound reached maximum chondrogenesis activity is reported.

CLK3 kinase = CLK3 kinase (Homo sapiens, UniProt P49761); assay: CLK3 kinase activity assay (Z-lyte FRET); type: biochemical; settings: Z-lyte Ser/Thr 18 peptide, 156 μM ATP, 1 h at room temperature;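 further: kinase activity read as coumarin/fluorescein emission ratio by FRET, unphosphorylated peptide as 0% and phosphorylated peptide as 100% control, values from non-linear regression of dose-response curves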
Chain of CLK3 kinase (P49761 whole entry): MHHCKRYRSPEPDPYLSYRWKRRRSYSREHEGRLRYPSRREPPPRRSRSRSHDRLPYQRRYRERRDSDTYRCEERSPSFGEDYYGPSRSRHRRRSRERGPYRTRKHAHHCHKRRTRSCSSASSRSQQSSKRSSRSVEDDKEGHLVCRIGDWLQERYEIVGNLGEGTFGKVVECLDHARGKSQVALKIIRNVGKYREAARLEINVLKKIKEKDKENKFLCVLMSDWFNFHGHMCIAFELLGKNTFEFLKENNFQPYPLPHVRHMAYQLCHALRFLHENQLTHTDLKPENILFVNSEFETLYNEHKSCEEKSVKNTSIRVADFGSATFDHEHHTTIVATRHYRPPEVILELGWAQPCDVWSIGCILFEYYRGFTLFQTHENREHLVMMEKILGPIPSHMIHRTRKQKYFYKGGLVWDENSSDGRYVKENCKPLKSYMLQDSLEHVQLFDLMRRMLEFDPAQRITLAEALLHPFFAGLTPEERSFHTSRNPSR

What does the source list for O=C(Nc1ccc(OCCN2CCCC2)nc1)c1n[nH]cc1C#Cc1cccnc1 [compound 28]?
EC50 [1]: 409 nM; EC50 (CLK2 kinase): 46 nM; Emax [2]: 68.8%

With COc1cncc(C#Cc2c[nH]nc2C(=O)Nc2ccc(N3CCNCC3)nc2)c1 [compound 29] as the molecule, how does the EC50 [1] read?
Its EC50 is > 10000 nM.

What about the EC50 (CLK2 kinase) of the same molecule?
Its EC50 is 25 nM.

What about the Emax [2] of the same molecule?
Its Emax is 74.7%.

For Fc1cccc(-c2cncc3[nH]c(-c4n[nH]cc4C#Cc4cncc(OC5CCNCC5)c4)nc23)c1 [compound 33], which EC50 [1] is on record?
The EC50 was 4640 nM.

And the EC50 (CLK2 kinase)?
Its EC50 is 3 nM.

What about the EC50 (CLK3 kinase) of the same molecule?
The EC50 was 148 nM.

What does the source list for Cc1n[nH]c2cc(F)c(-c3cncc(CN4CCCCC4)n3)cc12 [compound 40]?
EC50 [1]: 2440 nM; EC50 (CLK2 kinase): 45 nM; EC50 (CLK3 kinase): 2380 nM

For Cc1n[nH]c2ccc(-c3cncc(NN4CCNCC4)n3)cc12 [compound 41], which EC50 [1] is on record?
The EC50 was 256 nM.

And the EC50 (CLK2 kinase)?
Its EC50 is 1 nM.

And the EC50 (CLK3 kinase)?
The EC50 was 1420 nM.

Which results are given for Cc1n[nH]c2ccc(-c3cncc(NC4CCNC[C@@H]4F)n3)cc12 (some centres unmarked) [compound 42]?
EC50 [1]: 84.3 nM; Emax [2]: 25.6%

Which results are given for Cc1n[nH]c2ccc(-c3cncc(OC4CCNC[C@@H]4F)n3)cc12 (some centres unmarked) [compound 44]?
EC50 [1]: 627 nM; EC50 [2]: 100 nM; Emax [2]: 44.9%

What does the source list for Cc1n[nH]c2ccc(-c3cncc(OC4CCNC[C@H]4F)n3)cc12 (some centres unmarked) [compound 45]?
EC50 [1]: 834 nM; EC50 [2]: 30 nM; Emax [2]: 54.2%

With Cc1n[nH]c2ccc(-c3cncc(OC4CCNCC4(F)F)n3)cc12 (centres unmarked) [compound 47] as the molecule, how does the EC50 [1] read?
The EC50 was 227 nM.

And the EC50 [2]?
The EC50 was 300 nM.

What about the Emax [2] of the same molecule?
Its Emax is 82.1%.

What does the source list for CN(C)C(=O)Nc1cncc(-c2ccc3[nH]nc(C(=O)Nc4cccnc4)c3c2)c1 [compound 54]?
EC50 [1]: 176 nM; EC50 (CLK2 kinase): 1 nM; EC50 (CLK3 kinase): 20 nM

Which results are given for CN1CCN(c2ccc(NC(=O)c3n[nH]c4ccc(-c5cncc(NC(=O)C6CC6)c5)cc34)cn2)CC1 [compound 55]?
EC50 [1]: 80 nM; EC50 (CLK2 kinase): 1 nM; EC50 (CLK3 kinase): 13 nM

Which results are given for O=C(Nc1cccnc1)c1n[nH]c2ccc(-c3cncc(NC(=O)N4CCOCC4)c3)cc12 [compound 56]?
EC50 [1]: 1250 nM; EC50 (CLK2 kinase): 4 nM; EC50 (CLK3 kinase): 47 nM

How did the EC50 [1] turn out when Cc1cc2[nH]nc(C(=O)Nc3ccc(CN4CCCC4)cc3)c2cc1-c1cccnc1 [compound 60] was run?
Its EC50 is 1090 nM.

What about the EC50 (CLK2 kinase) of the same molecule?
The EC50 was 2 nM.

What about the EC50 (CLK3 kinase) of the same molecule?
The EC50 was 581 nM.

For CN1CCN(Cc2ccc(NC(=O)c3n[nH]c4ccc(-c5cccnc5)cc34)cn2)CC1 [compound 62], which EC50 [1] is on record?
The EC50 was 37 nM.

And the EC50 (CLK2 kinase)?
Its EC50 is 1 nM.

And the EC50 (CLK3 kinase)?
Its EC50 is 34 nM.

How did the EC50 [1] turn out when O=C(Nc1cnccc1NC(=O)C1CC1)c1n[nH]c2ccc(-c3cccnc3)cc12 [compound 63] was run?
Its EC50 is 68 nM.

And the EC50 (CLK2 kinase)?
The EC50 was 1 nM.

What about the EC50 (CLK3 kinase) of the same molecule?
Its EC50 is 343 nM.

How did the EC50 [1] turn out when O=C(Nc1ccnnc1)c1n[nH]c2ccc(-c3cccnc3)cc12 [compound 64] was run?
Its EC50 is 106 nM.

And the EC50 (CLK2 kinase)?
Its EC50 is 1 nM.

What about the EC50 (CLK3 kinase) of the same molecule?
The EC50 was 21 nM.

Which EC50 [1] does the source give for CN(C)Cc1cncc(NC(=O)c2n[nH]c3ccc(-c4cncc(CN5CCCC5)c4)cc23)c1 [compound 70] here?
Its EC50 is 330 nM.

And the EC50 (CLK2 kinase)?
The EC50 was 1 nM.

What about the EC50 (CLK3 kinase) of the same molecule?
The EC50 was 36 nM.

What does the source list for CN(C)CCN(C)c1ccc(NC(=O)c2n[nH]c3ccc(-c4cncc(CN5CCCCC5)c4)cc23)cn1 [compound 84]?
EC50 [1]: 65 nM; EC50 (CLK2 kinase): 1 nM; EC50 (CLK3 kinase): 14 nM

How did the EC50 [1] turn out when O=C(Nc1ccc(N2CCC(O)CC2)nc1)c1n[nH]c2ccc(-c3cncc(CN4CCCCC4)c3)cc12 [compound 91] was run?
Its EC50 is 49 nM.

And the EC50 (CLK2 kinase)?
The EC50 was 1 nM.

What about the EC50 (CLK3 kinase) of the same molecule?
Its EC50 is 22 nM.

O=C(Nc1ccc(-c2ccccc2)nc1)c1n[nH]c2ccc(-c3cncc(CN4CCCCC4)c3)cc12 [compound 93] was tested. Which EC50 [1] did it give?
The EC50 was 101 nM.

And the EC50 (CLK2 kinase)?
The EC50 was 5 nM.

And the EC50 (CLK3 kinase)?
Its EC50 is 71 nM.

COc1cncc(-c2ccc3[nH]nc(-c4nc5c(-c6cccc(F)c6)cncc5[nH]4)c3n2)c1 [compound 149] was tested. Which EC50 (CLK2 kinase) did it give?
Its EC50 is 2 nM.

What about the EC50 [2] of the same molecule?
Its EC50 is 20.6 nM.

And the Emax [2]?
The Emax was 55.5%.

What about the EC50 (CLK3 kinase) of the same molecule?
The EC50 was 65 nM.

How did the EC50 (CLK2 kinase) turn out when COc1cncc(-c2ccc3[nH]nc(-c4nc5c(-c6cccc(F)c6)ccnc5[nH]4)c3n2)c1 [compound 150] was run?
Its EC50 is 3 nM.

And the Emax [2]?
The Emax was 47%.

And the EC50 (CLK3 kinase)?
Its EC50 is 89 nM.

Which results are given for Fc1cccc(-c2cncc3[nH]c(-c4n[nH]c5ccc(-c6cn[nH]c6)nc45)nc23)c1 [compound 154]?
EC50 [1]: > 10000 nM; EC50 (CLK2 kinase): 3 nM; EC50 [2]: 20.6 nM; Emax [2]: 51.8%

What does the source list for c1cc(-c2cncc3[nH]c(-c4n[nH]c5ccc(-c6cncc(CNCC7CCCC7)c6)cc45)nc23)cs1 [compound 250]?
EC50 [1]: 58 nM; EC50 (CLK2 kinase): 4 nM; EC50 [2]: 100 nM; Emax [2]: 167%

Source: patent US20230000842A1, “METHODS OF TREATING CARTILAGE DISORDERS THROUGH INHIBITION OF CLK AND DYRK” (SAMUMED, LLC, priority 2019, published 2023)
